Experiment [1] has as its target T1, β5 subunit of the human immunoproteasome (IPS) (Homo sapiens, UniProt P28062).
T1 construct: purchased Boston Biochem E-370
The experiment can be described thus: β5 inhibition assay, human immunoproteasome (Suc-LLVY-AMC). Type of experiment: biochemical. The note with it: IC50 class, Suc-LLVY-AMC substrate. The gist of the method:
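β5 activity is read as liberated AMC fluorescence (355/460 nm) after 4 h dark reaction at RT with 22.6 μM Suc-LLVY-AMC, stopped by 1 μM bortezomib. Beforehand, 1 nM human IPS and compound sat 10 min at RT in HEPES pH 7.5 buffer containing NaCl, 0.02% SDS and DTT.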

In the next experiment the test system is HT-29 cells. The experiment can be described thus: CellTiter-Glo luminescent cell viability assay with HT-29 cells (72h incubation). It counts as cell-based, human. To be noted: Homo sapiens, HT-29, HT29 cells, read-out: CTG HT29. The method, boiled down:
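Viability read as CellTiter-Glo luminescence after 72 h compound exposure, with 10 μM staurosporine and DMSO as control wells. Seeding 400 cells per well, compound added 24 h post-plating; IC50 from curve fitting.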
For orientation: In ATP-based viability assays light output follows the ATP content of the culture.

Structures are written as SMILES.

Experimental findings from patent publication US20240415819A1, “MACROCYCLIC COMPOUNDS AS PROTEASOME SUBUNIT BETA TYPE-5 INHIBITORS” (Lead Discovery Center GmbH, priority 2021, published 2024) are described below.

Take `Cc1ccc2cc1CNC(=O)[C@H](CCc1ccccc1)NC(=O)[C@@H](NC(=O)OCc1ccccc1)CCCCC(=O)NCCCCO2` [Compound 347, benzyl ((13S,16S)-1^4-methyl-8,14,17-trioxo-16-phenethyl-2-oxa-7,15,18-triaza-1(1,3)-benzenacyclononadecaphane-13-yl)carbamate]: the IC50 (in experiment [1]; in the experiment on HT-29 cells) was less than 0.1 µM each time.

`Cc1ccc2cc1CNC(=O)[C@@H](CCc1ccccc1)NC(=O)[C@H](NC(=O)C(C)(C)CS)CC(=O)N1CCCC(CCO2)C1` (stereo partly drawn) [Compound 348, 3-mercapto-2,2-dimethyl-N-((9S,12S)-5^4-methyl-8,11,14-trioxo-9-phenethyl-4-oxa-7,10-diaza-1(3,1)-piperidina-5(1,3)-benzenacyclotetradecaphane-12-yl)propanamide]: the IC50 (in experiment [1]; with HT-29 cells) was less than 0.1 µM throughout.

For `Cc1ccc2cc1CNC(=O)[C@H](CCc1ccccc1)NC(=O)[C@@H](NC(=O)OCc1ccccc1)CCC(=O)N1CCC(CO2)C1` (stereo partly drawn) [Compound 349, benzyl ((8S,11S)-4^4-methyl-7,10,14-trioxo-8-phenethyl-3-oxa-6,9-diaza-1(3,1)-pyrrolidina-4(1,3)-benzenacyclotetradecaphane-11-yl)carbamate], the values for the IC50 (in experiment [1]; in the experiment with HT-29 cells) were less than 0.1 µM and 0.1 to 0.5 µM, respectively.

In the case of `Cc1ccc2cc1CNC(=O)[C@H](CCc1ccccc1)NC(=O)[C@@H](NC(=O)OCc1ccccc1)CCC(=O)N1CCC(CCO2)C1` (stereo partly drawn) [Compound 350, benzyl ((9S,12S)-5^4-methyl-8,11,15-trioxo-9-phenethyl-4-oxa-7,10-diaza-1(3,1)-pyrrolidina-5(1,3)-benzenacyclopentadecaphane-12-yl)carbamate], the IC50 (in experiment [1]; in the experiment with HT-29 cells) was less than 0.1 µM each time.

Consider `Cc1ccc2cc1CNC(=O)[C@H](CCc1ccccc1)NC(=O)[C@@H](NC(=O)OCc1ccccc1)CCCC(=O)N1CCC(CCO2)C1` (stereo partly drawn) [Compound 352, benzyl ((9S, 12S)-5^4-methyl-8,11,16-trioxo-9-phenethyl-4-oxa-7,10-diaza-1(3,1)-pyrrolidina-5(1,3)-benzenacyclohexadecaphane-12-yl)carbamate], for which the IC50 (in experiment [1]; in the experiment with HT-29 cells) was less than 0.1 µM in each case.

Consider `Cc1ccc2cc1CNC(=O)[C@H](CCc1ccccc1)NC(=O)[C@@H](NC(=O)OCc1ccccc1)CCCCC(=O)N1CC(CCO2)C1` [Compound 353, benzyl ((9S,12S)-5^4-methyl-8,11,17-trioxo-9-phenethyl-4-oxa-7,10-diaza-1(3,1)-azetidina-5(1,3)-benzenacycloheptadecaphane-12-yl)carbamate], for which the IC50 (in experiment [1]; in the experiment on HT-29 cells) was less than 0.1 µM throughout.

As to `Cc1cc2cc(c1C)CNC(=O)C(c1cnn(C)c1)NC(=O)CCC(=O)N1CCCC(CCO2)C1` (centres unmarked) [Compound 355, 5^4,5^5-dimethyl-9-(1-methyl-1H-pyrazol-4-yl)-4-oxa-7,10-diaza-1(3,1)-piperidina-5(1,3)-benzenacyclotetradecaphane-8,11,14-trione], the IC50 in experiment [1] is less than 0.1 µM; with HT-29 cells, 1 to 5 µM.

Turning to `Cc1ccc2cc1CNC(=O)C(c1cnn(C)c1)NC(=O)CCCCC(=O)N1CCCC(CCO2)C1` (centres unmarked) [Compound 356, 5^4-methyl-9-(1-methyl-1H-pyrazol-4-yl)-4-oxa-7,10-diaza-1(3,1)-piperidina-5(1,3)-benzenacyclohexadecaphane-8,11,16-trione], the figures for the IC50 (in experiment [1]; in the experiment on HT-29 cells) were less than 0.1 µM and 0.5 to 1 µM, respectively.

As to `Cc1ccc2cc1CNC(=O)C(c1cnn(C)c1)NC(=O)[C@@H](NC(=O)CN1CCCC1)CC(=O)N1CCCC(CCO2)C1` (stereo partly drawn) [Compound 358, N-((12S)-5^4-methyl-9-(1-methyl-1H-pyrazol-4-yl)-8,11,14-trioxo-4-oxa-7,10-diaza-1(3,1)-piperidina-5(1,3)-benzenacyclotetradecaphane-12-yl)-2-(pyrrolidin-1-yl)acetamide], the values for the IC50 (in experiment [1]; in the experiment on HT-29 cells) were less than 0.1 µM and 0.1 to 0.5 µM, respectively.

Turning to `Cc1ccc2cc1CNC(=O)C(c1cnn(C)c1)NC(=O)[C@@H](NC(=O)[C@@H](C)c1ccccc1)CC(=O)N1CCCC(CCO2)C1` (stereo partly drawn) [Compound 359, (2S)-N-((12S)-5^4-methyl-9-(1-methyl-1H-pyrazol-4-yl)-8,11,14-trioxo-4-oxa-7,10-diaza-1(3,1)-piperidina-5(1,3)-benzenacyclotetradecaphane-12-yl)-2-phenylpropanamide], the IC50 (in experiment [1]; in the experiment on HT-29 cells) was less than 0.1 µM in each case.

In the case of `Cc1ccc2cc1CNC(=O)C(c1cnn(C)c1)NC(=O)[C@@H](NC(=O)C1CCCc3ccccc31)CC(=O)N1CCCC(CCO2)C1` (stereo partly drawn) [Compound 360, N-((12S)-5^4-methyl-9-(1-methyl-1H-pyrazol-4-yl)-8,11,14-trioxo-4-oxa-7,10-diaza-1(3,1)-piperidina-5(1,3)-benzenacyclotetradecaphane-12-yl)-1,2,3,4-tetrahydronaphthalene-1-carboxamide], the IC50 (in experiment [1]; in the experiment on HT-29 cells) was less than 0.1 µM in each case.

Regarding `CO[C@@H](C(=O)N[C@H]1CC(=O)N2CCCC(CCOc3ccc(C)c(c3)CNC(=O)C(c3cnn(C)c3)NC1=O)C2)c1ccccc1` (stereo partly drawn) [Compound 361, (2R)-2-methoxy-N-((12S)-5^4-methyl-9-(1-methyl-1H-pyrazol-4-yl)-8,11,14-trioxo-4-oxa-7,10-diaza-1(3,1)-piperidina-5(1,3)-benzenacyclotetradecaphane-12-yl)-2-phenylacetamide], the IC50 (in experiment [1]; with HT-29 cells) was less than 0.1 µM throughout.

As to `COc1cccc(CC(=O)N[C@H]2CC(=O)N3CCCC(CCOc4ccc(C)c(c4)CNC(=O)C(c4cnn(C)c4)NC2=O)C3)c1` (stereo partly drawn) [Compound 362, 2-(3-methoxyphenyl)-N-((12S)-5^4-methyl-9-(1-methyl-1H-pyrazol-4-yl)-8,11,14-trioxo-4-oxa-7,10-diaza-1(3,1)-piperidina-5(1,3)-benzenacyclotetradecaphane-12-yl)acetamide], the IC50 (in experiment [1]; in the experiment on HT-29 cells) was less than 0.1 µM each time.

Regarding `CCOC(=O)N[C@H]1CC(=O)N2CCCC(CCOc3ccc(C)c(c3)CNC(=O)C(c3cnn(C)c3)NC1=O)C2` (stereo partly drawn) [Compound 363, Ethyl ((12S)-5^4-methyl-9-(1-methyl-1H-pyrazol-4-yl)-8,11,14-trioxo-4-oxa-7,10-diaza-1(3,1)-piperidina-5(1,3)-benzenacyclotetradecaphane-12-yl)carbamate], the IC50 (in experiment [1]; in the experiment with HT-29 cells) was less than 0.1 µM throughout.

As for `CC(=O)N[C@H]1CC(=O)N2CCCC(CCOc3cccc(c3)CNC(=O)[C@H](CCc3ccccc3)NC1=O)C2` (stereo partly drawn) [Compound 364, N-((9S,12S)-8,11,14-trioxo-9-phenethyl-4-oxa-7,10-diaza-1(3,1)-piperidina-5(1,3)-benzenacyclotetradecaphane-12-yl)acetamide], the IC50 (in experiment [1]; in the experiment on HT-29 cells) was less than 0.1 µM in each case.

Consider `Cc1ccc2cc1CNC(=O)C(CCc1cnccn1)NC(=O)[C@@H](NC(=O)C1(c3ccc(N)cc3)CC1)CC(=O)N1CCCC(CCO2)C1` (stereo partly drawn) [Compound 371, 1-(4-aminophenyl)-N-((9S,12S)-5^4-methyl-8,11,14-trioxo-9-(2-(pyrazin-2-yl)ethyl)-4-oxa-7,10-diaza-1(3,1)-piperidina-5(1,3)-benzenacyclotetradecaphane-12-yl)cyclopropane-1-carboxamide], for which the IC50 (in experiment [1]; in the experiment with HT-29 cells) was less than 0.1 µM in each case.
